How the values were obtained:
[1] = test system: Tyrosine-protein kinase ABL1 (Homo sapiens), P00519 [M351T]; settings: Compound concentration 1000.0 nM
[2] = biological target: Calcium/calmodulin-dependent protein kinase type 1 (Homo sapiens) (UniProt Q14012); settings: Compound concentration 1000.0 nM
[3] = biological target: Calcium/calmodulin-dependent protein kinase kinase 1 (Homo sapiens) (UniProt Q8N5S9); settings: Compound concentration 1000.0 nM
[4] = biological target: Cyclin-dependent kinase 7 (Homo sapiens) (UniProt P50613); settings: Compound concentration 1000.0 nM
[5] = biological target: Citron Rho-interacting kinase (Homo sapiens) (UniProt O14578); settings: Compound concentration 1000.0 nM
[6] = biological target: Dual specificity protein kinase CLK3 (Homo sapiens) (UniProt P49761); settings: Compound concentration 1000.0 nM
[7] = biological target: Dual specificity protein kinase CLK4 (Homo sapiens) (UniProt Q9HAZ1); settings: Compound concentration 1000.0 nM
[8] = biological target: Casein kinase I isoform gamma-2 (Homo sapiens) (UniProt P78368); settings: Compound concentration 1000.0 nM
[9] = biological target: Megakaryocyte-associated tyrosine-protein kinase (Homo sapiens) (UniProt P42679); settings: Compound concentration 1000.0 nM
[10] = biological target: Epithelial discoidin domain-containing receptor 1 (Homo sapiens) (UniProt Q08345); settings: Compound concentration 1000.0 nM
[11] = test system: Epidermal growth factor receptor (Homo sapiens), P00533 [UNDEFINED MUTATION]; settings: Compound concentration 1000.0 nM
[12] = test system: Epidermal growth factor receptor (Homo sapiens), P00533 [L858R]; settings: Compound concentration 1000.0 nM
[13] = biological target: Ephrin type-A receptor 6 (Homo sapiens) (UniProt Q9UF33); settings: Compound concentration 1000.0 nM
[14] = biological target: Ephrin type-A receptor 8 (Homo sapiens) (UniProt P29322); settings: Compound concentration 1000.0 nM
[15] = biological target: Fibroblast growth factor receptor 3 (Homo sapiens) (UniProt P22607); settings: Compound concentration 1000.0 nM
[16] = test system: Receptor-type tyrosine-protein kinase FLT3 (Homo sapiens), P36888 [R834Q]; settings: Compound concentration 1000.0 nM
[17] = biological target: Insulin receptor (Homo sapiens) (UniProt P06213); settings: Compound concentration 1000.0 nM
[18] = test system: Mast/stem cell growth factor receptor Kit (Homo sapiens), P10721 [L576P]; settings: Compound concentration 1000.0 nM
[19] = test system: Mast/stem cell growth factor receptor Kit (Homo sapiens), P10721 [V559D]; settings: Compound concentration 1000.0 nM
[20] = test system: Mast/stem cell growth factor receptor Kit (Homo sapiens), P10721 [V559D,T670I]; settings: Compound concentration 1000.0 nM
[21] = biological target: Serine/threonine-protein kinase LATS1 (Homo sapiens) (UniProt O95835); settings: Compound concentration 1000.0 nM
[22] = biological target: Tyrosine-protein kinase Lck (Homo sapiens) (UniProt P06239); settings: Compound concentration 1000.0 nM
[23] = biological target: LIM domain kinase 1 (Homo sapiens) (UniProt P53667); settings: Compound concentration 1000.0 nM
[24] = test system: Leucine-rich repeat serine/threonine-protein kinase 2 (Homo sapiens), Q5S007 [G2019S]; settings: Compound concentration 1000.0 nM
[25] = biological target: Mitogen-activated protein kinase kinase kinase 2 (Homo sapiens) (UniProt Q9Y2U5); settings: Compound concentration 1000.0 nM
[26] = biological target: Serine/threonine-protein kinase MARK2 (Homo sapiens) (UniProt Q7KZI7); settings: Compound concentration 1000.0 nM
[27] = biological target: MAP/microtubule affinity-regulating kinase 4 (Homo sapiens) (UniProt Q96L34); settings: Compound concentration 1000.0 nM
[28] = biological target: Dual specificity mitogen-activated protein kinase kinase 4 (Homo sapiens) (UniProt P45985); settings: Compound concentration 1000.0 nM
[29] = biological target: Serine/threonine-protein kinase MRCK beta (Homo sapiens) (UniProt Q9Y5S2); settings: Compound concentration 1000.0 nM
[30] = biological target: Cyclin-dependent kinase 15 (Homo sapiens) (UniProt Q96Q40); settings: Compound concentration 1000.0 nM
[31] = biological target: Phosphorylase b kinase gamma catalytic chain, skeletal muscle/heart isoform (Homo sapiens) (UniProt Q16816); settings: Compound concentration 1000.0 nM
[32] = test system: Phosphatidylinositol 4,5-bisphosphate 3-kinase catalytic subunit alpha isoform (Homo sapiens), P42336 [I800L]; settings: Compound concentration 1000.0 nM
[33] = test system: Phosphatidylinositol 4,5-bisphosphate 3-kinase catalytic subunit alpha isoform (Homo sapiens), P42336 [Q546K]; settings: Compound concentration 1000.0 nM
[34] = biological target: Phosphatidylinositol 4,5-bisphosphate 3-kinase catalytic subunit gamma isoform (Homo sapiens) (UniProt P48736); settings: Compound concentration 1000.0 nM
[35] = biological target: Proto-oncogene tyrosine-protein kinase receptor Ret (Homo sapiens) (UniProt P07949); settings: Compound concentration 1000.0 nM
[36] = biological target: Ribosomal protein S6 kinase alpha-2 (Homo sapiens) (UniProt Q15349); settings: Compound concentration 1000.0 nM
[37] = biological target: SRSF protein kinase 3 (Homo sapiens) (UniProt Q9UPE1); settings: Compound concentration 1000.0 nM
[38] = biological target: Serine/threonine-protein kinase 33 (Homo sapiens) (UniProt Q9BYT3); settings: Compound concentration 1000.0 nM
[39] = biological target: Serine/threonine-protein kinase 35 (Homo sapiens) (UniProt Q8TDR2); settings: Compound concentration 1000.0 nM
[40] = biological target: Serine/threonine-protein kinase TAO2 (Homo sapiens) (UniProt Q9UL54); settings: Compound concentration 1000.0 nM
[41] = biological target: Wee1-like protein kinase (Homo sapiens) (UniProt P30291); settings: Compound concentration 1000.0 nM
[42] = biological target: Serine/threonine-protein kinase WNK1 (Homo sapiens) (UniProt Q9H4A3); settings: Compound concentration 1000.0 nM
[43] = biological target: Serine/threonine-protein kinase 32A (Homo sapiens) (UniProt Q8WU08); settings: Compound concentration 1000.0 nM
[44] = biological target: Tyrosine-protein kinase ZAP-70 (Homo sapiens) (UniProt P43403); settings: Compound concentration 1000.0 nM
[45] = biological target: 5-hydroxytryptamine receptor 3A (Homo sapiens) (UniProt P46098); settings: Compound concentration 10.0 uM

Chain of Serine/threonine-protein kinase 33 (Homo sapiens) (Q9BYT3 whole entry, looked up): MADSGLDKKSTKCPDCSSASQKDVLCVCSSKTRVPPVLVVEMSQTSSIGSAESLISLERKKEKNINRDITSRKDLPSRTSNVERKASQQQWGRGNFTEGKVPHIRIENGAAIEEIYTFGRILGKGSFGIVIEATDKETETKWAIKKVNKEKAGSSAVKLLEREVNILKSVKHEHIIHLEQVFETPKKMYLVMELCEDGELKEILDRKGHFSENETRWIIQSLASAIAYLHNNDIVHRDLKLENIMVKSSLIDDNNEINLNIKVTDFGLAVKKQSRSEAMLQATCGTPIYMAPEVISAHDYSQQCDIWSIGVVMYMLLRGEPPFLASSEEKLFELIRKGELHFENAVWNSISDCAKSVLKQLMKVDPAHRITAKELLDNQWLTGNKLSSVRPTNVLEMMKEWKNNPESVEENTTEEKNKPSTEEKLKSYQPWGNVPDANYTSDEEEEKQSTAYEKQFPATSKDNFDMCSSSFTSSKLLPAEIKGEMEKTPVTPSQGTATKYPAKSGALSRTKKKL
Chain of Mast/stem cell growth factor receptor Kit (Homo sapiens), P10721 [V559D,T670I] (P10721 whole entry V559D/T670I): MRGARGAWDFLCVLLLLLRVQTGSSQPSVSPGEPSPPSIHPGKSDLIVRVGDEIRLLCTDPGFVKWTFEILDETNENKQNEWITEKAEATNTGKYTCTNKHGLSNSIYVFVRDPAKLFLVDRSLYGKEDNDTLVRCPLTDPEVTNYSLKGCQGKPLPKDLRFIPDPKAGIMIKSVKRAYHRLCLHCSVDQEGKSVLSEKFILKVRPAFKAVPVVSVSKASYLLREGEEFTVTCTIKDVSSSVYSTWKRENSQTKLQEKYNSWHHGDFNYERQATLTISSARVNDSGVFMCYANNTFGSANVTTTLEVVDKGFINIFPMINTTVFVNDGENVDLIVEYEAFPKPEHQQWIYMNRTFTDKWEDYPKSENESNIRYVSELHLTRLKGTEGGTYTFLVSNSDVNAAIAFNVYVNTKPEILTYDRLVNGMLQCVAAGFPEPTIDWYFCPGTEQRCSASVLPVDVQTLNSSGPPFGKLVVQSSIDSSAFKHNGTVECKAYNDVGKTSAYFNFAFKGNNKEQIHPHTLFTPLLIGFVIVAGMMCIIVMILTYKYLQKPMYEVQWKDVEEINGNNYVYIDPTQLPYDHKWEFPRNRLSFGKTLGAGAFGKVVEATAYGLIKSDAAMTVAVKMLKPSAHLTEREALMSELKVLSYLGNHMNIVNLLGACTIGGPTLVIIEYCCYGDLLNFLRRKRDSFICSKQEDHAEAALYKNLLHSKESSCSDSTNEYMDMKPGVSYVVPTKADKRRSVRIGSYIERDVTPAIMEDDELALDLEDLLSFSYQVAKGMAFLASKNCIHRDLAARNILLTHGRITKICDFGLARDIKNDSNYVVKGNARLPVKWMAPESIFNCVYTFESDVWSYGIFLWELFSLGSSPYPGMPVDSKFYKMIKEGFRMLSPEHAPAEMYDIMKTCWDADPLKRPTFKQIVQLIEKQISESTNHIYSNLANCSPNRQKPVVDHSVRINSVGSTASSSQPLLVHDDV
Chain of Cyclin-dependent kinase 7 (Homo sapiens) (P50613 whole entry): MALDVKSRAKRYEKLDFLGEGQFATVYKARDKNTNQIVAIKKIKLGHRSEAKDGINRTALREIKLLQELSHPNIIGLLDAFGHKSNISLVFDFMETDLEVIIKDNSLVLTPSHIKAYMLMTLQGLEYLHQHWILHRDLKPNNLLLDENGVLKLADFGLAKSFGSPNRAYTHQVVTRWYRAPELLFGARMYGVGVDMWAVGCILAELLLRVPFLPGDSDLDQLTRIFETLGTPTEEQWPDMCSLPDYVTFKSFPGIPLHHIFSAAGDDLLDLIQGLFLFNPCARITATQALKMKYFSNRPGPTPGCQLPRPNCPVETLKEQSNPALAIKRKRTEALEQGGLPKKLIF
Chain of Serine/threonine-protein kinase MRCK beta (Homo sapiens) (Q9Y5S2 whole entry): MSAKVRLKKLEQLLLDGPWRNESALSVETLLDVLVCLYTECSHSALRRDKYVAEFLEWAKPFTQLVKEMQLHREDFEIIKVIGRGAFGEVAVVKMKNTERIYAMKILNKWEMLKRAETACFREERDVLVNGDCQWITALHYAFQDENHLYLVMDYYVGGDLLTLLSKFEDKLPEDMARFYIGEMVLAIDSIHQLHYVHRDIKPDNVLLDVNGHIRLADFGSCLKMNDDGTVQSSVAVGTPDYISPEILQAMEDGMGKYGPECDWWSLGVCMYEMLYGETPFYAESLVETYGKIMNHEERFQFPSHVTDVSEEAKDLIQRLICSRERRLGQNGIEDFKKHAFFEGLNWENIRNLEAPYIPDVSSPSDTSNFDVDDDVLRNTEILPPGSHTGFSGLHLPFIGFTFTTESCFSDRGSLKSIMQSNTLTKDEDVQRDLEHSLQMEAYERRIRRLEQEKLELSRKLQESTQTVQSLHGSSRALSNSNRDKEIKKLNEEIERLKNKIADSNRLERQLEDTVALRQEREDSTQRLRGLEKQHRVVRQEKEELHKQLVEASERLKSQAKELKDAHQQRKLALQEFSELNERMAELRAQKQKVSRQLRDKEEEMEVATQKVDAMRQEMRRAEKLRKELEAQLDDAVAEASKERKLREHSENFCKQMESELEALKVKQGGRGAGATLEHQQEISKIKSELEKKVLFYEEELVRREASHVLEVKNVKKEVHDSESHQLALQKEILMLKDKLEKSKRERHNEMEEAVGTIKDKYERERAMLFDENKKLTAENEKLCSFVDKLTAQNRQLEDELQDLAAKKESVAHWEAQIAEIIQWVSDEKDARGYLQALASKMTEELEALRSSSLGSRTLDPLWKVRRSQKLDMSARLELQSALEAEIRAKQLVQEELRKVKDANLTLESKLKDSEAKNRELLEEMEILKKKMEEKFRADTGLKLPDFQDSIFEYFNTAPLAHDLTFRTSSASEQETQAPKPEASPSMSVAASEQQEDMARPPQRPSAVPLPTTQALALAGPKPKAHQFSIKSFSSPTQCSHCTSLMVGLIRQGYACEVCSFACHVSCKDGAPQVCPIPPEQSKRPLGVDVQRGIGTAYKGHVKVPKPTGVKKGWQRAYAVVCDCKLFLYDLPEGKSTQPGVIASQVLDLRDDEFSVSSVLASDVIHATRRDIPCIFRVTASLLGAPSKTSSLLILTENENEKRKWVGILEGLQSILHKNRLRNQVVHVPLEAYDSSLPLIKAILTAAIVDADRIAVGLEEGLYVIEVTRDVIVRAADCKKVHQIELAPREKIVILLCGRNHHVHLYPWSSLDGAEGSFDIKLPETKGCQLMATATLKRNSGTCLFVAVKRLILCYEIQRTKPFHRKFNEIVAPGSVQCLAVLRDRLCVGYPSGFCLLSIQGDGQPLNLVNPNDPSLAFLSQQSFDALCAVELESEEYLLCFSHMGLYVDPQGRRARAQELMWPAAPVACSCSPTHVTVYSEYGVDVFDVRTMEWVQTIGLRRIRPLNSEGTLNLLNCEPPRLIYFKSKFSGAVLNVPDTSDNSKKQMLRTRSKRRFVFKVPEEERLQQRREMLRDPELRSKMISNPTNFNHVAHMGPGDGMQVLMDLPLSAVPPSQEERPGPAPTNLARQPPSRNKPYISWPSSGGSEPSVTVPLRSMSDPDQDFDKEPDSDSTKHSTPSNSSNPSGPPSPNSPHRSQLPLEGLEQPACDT
Chain of Casein kinase I isoform gamma-2 (Homo sapiens) (P78368 whole entry, looked up, canonical isoform): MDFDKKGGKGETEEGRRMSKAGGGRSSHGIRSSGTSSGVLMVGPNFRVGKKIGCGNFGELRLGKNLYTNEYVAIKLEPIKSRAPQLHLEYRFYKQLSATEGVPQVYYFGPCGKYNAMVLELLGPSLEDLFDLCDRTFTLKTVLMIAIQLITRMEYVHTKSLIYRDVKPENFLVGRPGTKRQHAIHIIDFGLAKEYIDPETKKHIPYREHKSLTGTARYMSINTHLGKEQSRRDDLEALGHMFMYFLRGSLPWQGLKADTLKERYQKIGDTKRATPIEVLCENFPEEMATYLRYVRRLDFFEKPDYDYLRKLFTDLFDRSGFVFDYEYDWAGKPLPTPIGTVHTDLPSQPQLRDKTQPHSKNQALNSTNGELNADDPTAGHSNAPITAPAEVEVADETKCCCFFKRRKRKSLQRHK
Chain of Phosphatidylinositol 4,5-bisphosphate 3-kinase catalytic subunit alpha isoform (Homo sapiens), P42336 [I800L] (P42336 whole entry I800L, canonical isoform): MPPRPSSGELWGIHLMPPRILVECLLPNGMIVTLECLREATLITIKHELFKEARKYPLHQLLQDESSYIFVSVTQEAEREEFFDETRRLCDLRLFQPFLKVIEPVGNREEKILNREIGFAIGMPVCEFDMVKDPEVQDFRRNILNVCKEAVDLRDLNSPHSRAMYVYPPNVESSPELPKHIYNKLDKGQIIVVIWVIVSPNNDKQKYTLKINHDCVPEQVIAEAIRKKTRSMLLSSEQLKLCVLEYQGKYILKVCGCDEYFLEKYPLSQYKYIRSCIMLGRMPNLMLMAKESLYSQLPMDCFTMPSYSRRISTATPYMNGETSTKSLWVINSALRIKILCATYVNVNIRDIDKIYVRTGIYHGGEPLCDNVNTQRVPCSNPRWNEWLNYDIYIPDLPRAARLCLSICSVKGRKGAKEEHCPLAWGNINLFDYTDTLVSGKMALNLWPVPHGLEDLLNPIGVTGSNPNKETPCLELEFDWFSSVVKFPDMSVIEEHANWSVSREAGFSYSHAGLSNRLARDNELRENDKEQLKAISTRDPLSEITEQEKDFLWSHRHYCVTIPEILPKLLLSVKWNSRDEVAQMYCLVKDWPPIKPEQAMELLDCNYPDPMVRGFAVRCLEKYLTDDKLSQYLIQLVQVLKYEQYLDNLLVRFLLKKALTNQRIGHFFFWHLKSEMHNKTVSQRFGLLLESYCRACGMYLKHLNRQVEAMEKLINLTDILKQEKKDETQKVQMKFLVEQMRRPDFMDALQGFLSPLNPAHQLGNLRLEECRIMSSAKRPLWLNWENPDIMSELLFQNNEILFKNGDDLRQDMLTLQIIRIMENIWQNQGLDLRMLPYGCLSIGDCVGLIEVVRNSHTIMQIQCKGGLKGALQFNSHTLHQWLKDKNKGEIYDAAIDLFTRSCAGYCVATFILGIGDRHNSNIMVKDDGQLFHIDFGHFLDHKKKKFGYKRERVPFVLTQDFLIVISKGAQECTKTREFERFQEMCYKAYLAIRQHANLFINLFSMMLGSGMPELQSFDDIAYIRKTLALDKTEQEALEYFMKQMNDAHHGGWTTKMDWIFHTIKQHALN
Chain of Mast/stem cell growth factor receptor Kit (Homo sapiens), P10721 [L576P] (P10721 whole entry L576P): as the sequence (P10721 whole entry V559D/T670I) above, with D559V, L576P, I670T counted along it

COc1cc(-c2cn([C@H]3CCc4ccccc4N(CC(F)(F)F)C3=O)nn2)ccc1-n1ccc(C)n1
inactive: residual activity [1] 64% | residual activity [2] 100% | residual activity [3] 100% | residual activity [4] 87% | residual activity [5] 100% | residual activity [6] 95% | residual activity [7] 80% | residual activity [8] 100% | residual activity [9] 80% | residual activity [10] 100% | residual activity [11] 100% | residual activity [12] 97% | residual activity [13] 98% | residual activity [14] 100% | residual activity [15] 100% | residual activity [16] 100% | residual activity [17] 69% | residual activity [18] 62% | residual activity [19] 96% | residual activity [20] 92% | residual activity [21] 71% | residual activity [22] 100% | residual activity [23] 100% | residual activity [24] 100% | residual activity [25] 100% | residual activity [26] 93% | residual activity [27] 100% | residual activity [28] 100% | residual activity [29] 100% | residual activity [30] 100% | residual activity [31] 80% | residual activity [32] 76% | residual activity [33] 97% | residual activity [34] 67% | residual activity [35] 91% | residual activity [36] 100% | residual activity [37] 100% | residual activity [38] 100% | residual activity [39] 100% | residual activity [40] 100% | residual activity [41] 100% | residual activity [42] 100% | residual activity [43] 97% | residual activity [44] 82% | inhibition [45] -9.73%

COc1cc(-c2cn([C@H]3CCc4c(F)cccc4N(CC(F)(F)F)C3=O)nn2)ccc1-n1cnc(C)c1
inactive: residual activity [1] 95% | residual activity [2] 100% | residual activity [3] 100% | residual activity [4] 100% | residual activity [5] 100% | residual activity [6] 83% | residual activity [7] 100% | residual activity [8] 100% | residual activity [9] 100% | residual activity [10] 100% | residual activity [11] 96% | residual activity [12] 100% | residual activity [13] 100% | residual activity [14] 100% | residual activity [15] 100% | residual activity [16] 100% | residual activity [17] 90% | residual activity [18] 100% | residual activity [19] 100% | residual activity [20] 94% | residual activity [21] 93% | residual activity [22] 100% | residual activity [23] 100% | residual activity [24] 100% | residual activity [25] 94% | residual activity [26] 100% | residual activity [27] 100% | residual activity [28] 93% | residual activity [29] 100% | residual activity [30] 100% | residual activity [31] 78% | residual activity [32] 66% | residual activity [33] 90% | residual activity [34] 84% | residual activity [35] 84% | residual activity [36] 100% | residual activity [37] 100% | residual activity [38] 100% | residual activity [39] 100% | residual activity [40] 100% | residual activity [41] 79% | residual activity [42] 100% | residual activity [43] 100% | residual activity [44] 100% | inhibition [45] -8%
